In patent US20100216981A1 (Nippon Soda Co., Ltd., priority 2007, published 2010):

B1: biotinylated siRNA 21 bp (dsRNA)
RNA 1: UUGCUCAACAGUAUGGGCAUU
RNA 2: UGCCCAUACUGUUGAGCAAUU

What was measured:
[1] = biological target: synthetic peptide of tat (HIV tat) (Human immunodeficiency virus type 1 group M subtype B, UniProt P04610, P77S); assay: Gel shift assay, inhibition of siRNA binding to synthetic peptide of tat; conditions: compound 100 ppm; synthetic peptide of tat 500 nM
[2] = biological target: PTGS-SP p19 of TBSV (Tomato bushy stunt virus, UniProt P11690); assay: Surface plasmon resonance (Biacore) inhibition of siRNA binding to p19; conditions: read-out: Binding inhibition rate (%) Biacore p19 25 ppm
[3] = biological target: TAV-2b (Tomato aspermy virus, UniProt Q8UYT3); assay: Surface plasmon resonance (Biacore) inhibition of siRNA binding to TAV-2b; conditions: read-out: Binding inhibition rate (%) Biacore TAV2b 25 ppm
[4] = biological target: T1, tat synthetic peptide (arginine-rich portion) (Human immunodeficiency virus, UniProt P69698 SEQ:1-34); assay: EMSA; peptide 500 nM, siRNA 500 uM as printed, 0.005% BSA, 25 C; binding inhibited by small molecules; conditions: protein: synthetic; tags: chemically synthesised peptide, Biologica Co., 98% purity; label: 3'-biotin on sense strand; siRNA duplex of two 21-mers
T1 chain: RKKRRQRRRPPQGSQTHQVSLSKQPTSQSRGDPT

[5] = biological target: T2, 2b (PTGS suppressor) (Tomato aspermy virus, UniProt Q8UYT3 Q8UYT3:1-95); assay: SPR; siRNA on SA chip; 10 mM HEPES pH 7.4, 150 mM NaCl, 3 mM EDTA; 2b about 10 ug/ml; free siRNA 0.1 uM competes (positive control); small molecules inhibit binding; conditions: tags: FLAG (MBP removed with Factor Xa); label: 3'-biotin on sense strand; siRNA duplex of two 21-mers
T2 sequence: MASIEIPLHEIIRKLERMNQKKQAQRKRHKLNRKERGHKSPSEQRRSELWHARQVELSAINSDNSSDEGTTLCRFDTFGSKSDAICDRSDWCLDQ

[6] = biological target: T3, p19 (PTGS suppressor) (Tomato bushy stunt virus, UniProt P11690 P11690:1-172); assay: SPR; siRNA on SA chip; 10 mM HEPES pH 7.4, 150 mM NaCl, 3 mM EDTA; p19 about 10 ug/ml; free siRNA 0.1 uM competes (positive control); small molecules inhibit binding; conditions: tags: His-tag (pCold I), FLAG; chain copies: 2; label: 3'-biotin on sense strand; siRNA duplex of two 21-mers
T3 sequence: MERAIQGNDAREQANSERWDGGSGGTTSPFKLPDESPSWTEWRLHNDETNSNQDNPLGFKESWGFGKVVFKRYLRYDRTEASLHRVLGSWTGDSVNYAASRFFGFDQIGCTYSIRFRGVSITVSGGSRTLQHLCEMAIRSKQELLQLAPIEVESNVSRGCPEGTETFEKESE

| Molecule | Binding inhibition rate (%) Gel shift tat 100 ppm [1] [%] | inhibition at 25 ppm [2] [%] | inhibition at 25 ppm [3] [%] | binding result [4] | binding result [5] | binding result [6] |
| --- | --- | --- | --- | --- | --- | --- |
| O=C1C=CC(=O)C=C1 [Compound 12] | 100 | 100 | 95 | – | – | – |
| O=C1CCC(=O)CC1 [Compound 11] | – | 70 | 20 | – | – | – |
| Cc1occc(=O)c1O [Compound 19] | 0 | 90 | 50 | – | – | – |
| O=C1C=C(Cl)C(=O)C(Cl)=C1 [Compound 13] | 100 | – | – | – | – | – |
| COC1=C(OC)C(=O)C(C)=CC1=O [Compound 16] | 0 | 80 | 0 | – | – | – |
| O=C1CCCCC1 [Compound 10] | – | 70 | 50 | – | – | – |
| O=C1C=C(Cl)C(=O)C=C1Cl [Compound 14] | 100 | – | – | – | – | – |
| CC(=O)C1CCCC1=O (centres unmarked) [Compound 4] | – | 20 | 90 | – | – | – |
| O=C1CCSC1 [Compound 9] | 0 | 95 | 0 | – | – | – |
| COc1c(OC)c(=O)c1=O [Compound 1] | 10 | 80 | 80 | – | – | – |
| O=C1CCc2ccccc2C1=O [Compound 6] | 100 | 100 | 100 | – | – | – |
| NC1=CC(=O)CCC1 [Compound 18] | 0 | 90 | 80 | – | – | – |
| O=c1c(O)c(O)c(=O)c(=O)c1=O [Compound 17] | – | 100 | 90 | – | – | – |
| O=C1C=CC(=O)c2c(O)ccc(O)c21 [Compound 20] | 100 | 100 | 80 | – | – | – |
| CCOC(=O)C1CCCC1=O (centres unmarked) [Compound 3] | – | 0 | 90 | – | – | – |
| O=C1C=C(O)C(=O)C=C1O [Compound 15] | 80 | 95 | 100 | – | – | – |
| O=C1C=CC(=O)C1 [Compound 5] | 100 | 100 | 100 | – | – | – |
| CC1(C)C(=O)C(C)(C)C1=O [Compound 2] | – | 75 | 0 | – | – | – |
| B1 | – | – | – | binds | binds | binds |
